# Results as given in patent US10112929B2, “Lactams as inhibitors of rock” (BRISTOL-MYERS SQUIBB COMPANY, priority 2015, dated 2018).
# Structures can show the parent of a compound that is named as a salt.
# Target: ROCK2 (Homo sapiens (Human), UniProt O75116)
# Assay: biochemical
# 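Further: rho kinase enzyme reaction halted with EDTA, phospho- and non-phospho peptide separated for read-out, kinase activity inhibition derived across a dose-response series, DMSO under 2%.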
# Sequence of ROCK2 (O75116 whole entry, species assumed): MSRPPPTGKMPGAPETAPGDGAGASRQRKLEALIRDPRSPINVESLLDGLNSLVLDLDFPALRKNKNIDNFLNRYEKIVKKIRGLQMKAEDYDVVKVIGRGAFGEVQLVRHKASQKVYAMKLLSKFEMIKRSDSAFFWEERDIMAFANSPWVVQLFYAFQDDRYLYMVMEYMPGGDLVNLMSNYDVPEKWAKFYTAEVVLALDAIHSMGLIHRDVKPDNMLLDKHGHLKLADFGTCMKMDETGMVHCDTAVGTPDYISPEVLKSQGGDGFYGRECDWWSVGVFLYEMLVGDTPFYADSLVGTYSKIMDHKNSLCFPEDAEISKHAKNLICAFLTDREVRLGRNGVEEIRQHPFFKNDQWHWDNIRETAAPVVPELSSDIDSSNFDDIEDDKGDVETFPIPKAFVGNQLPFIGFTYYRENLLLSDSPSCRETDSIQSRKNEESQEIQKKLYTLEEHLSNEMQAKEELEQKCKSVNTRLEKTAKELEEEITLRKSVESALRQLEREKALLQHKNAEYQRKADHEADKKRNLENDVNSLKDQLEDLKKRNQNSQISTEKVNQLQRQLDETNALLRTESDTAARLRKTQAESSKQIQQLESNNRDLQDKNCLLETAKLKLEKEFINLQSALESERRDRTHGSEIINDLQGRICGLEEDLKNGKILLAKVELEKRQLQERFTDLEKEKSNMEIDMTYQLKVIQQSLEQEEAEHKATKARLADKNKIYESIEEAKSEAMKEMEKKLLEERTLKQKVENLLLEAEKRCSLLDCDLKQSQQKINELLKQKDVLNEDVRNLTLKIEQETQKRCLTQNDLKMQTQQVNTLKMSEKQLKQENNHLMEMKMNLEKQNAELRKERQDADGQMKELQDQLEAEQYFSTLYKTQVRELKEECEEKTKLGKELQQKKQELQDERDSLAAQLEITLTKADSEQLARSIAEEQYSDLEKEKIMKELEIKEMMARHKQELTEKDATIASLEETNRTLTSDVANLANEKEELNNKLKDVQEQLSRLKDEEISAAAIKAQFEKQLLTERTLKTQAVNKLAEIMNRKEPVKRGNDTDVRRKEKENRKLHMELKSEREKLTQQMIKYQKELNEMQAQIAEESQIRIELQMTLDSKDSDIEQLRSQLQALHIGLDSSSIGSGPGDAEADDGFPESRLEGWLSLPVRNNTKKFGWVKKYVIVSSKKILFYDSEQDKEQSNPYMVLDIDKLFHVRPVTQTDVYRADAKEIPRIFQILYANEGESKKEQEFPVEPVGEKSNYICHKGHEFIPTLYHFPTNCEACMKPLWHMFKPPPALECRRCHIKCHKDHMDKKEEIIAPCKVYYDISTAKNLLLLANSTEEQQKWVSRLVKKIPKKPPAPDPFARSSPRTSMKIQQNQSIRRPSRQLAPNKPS
row,SMILES,IC50
1,"COc1ccc(NC2CCN(c3ccc(-c4cn[nH]c4)cc3F)C2=O)cc1F (single isomer, unassigned) [Example 344, 1-(2-fluoro-4-(1H-pyrazol-4-yl)phenyl)-3-((3-fluoro-4-methoxyphenyl)amino) pyrrolidin-2-one]",100 to 2200 nM
2,"COc1ccc(NC2CCN(c3ccc(-c4cn[nH]c4)c(Cl)c3)C2=O)cc1F (single isomer, unassigned) [Example 156, 1-(3-chloro-4-(1H-pyrazol-4-yl)phenyl)-3 ((3-fluoro-4-methoxyphenyl)amino) pyrrolidin-2-one]",100 to 2200 nM
3,"CCc1cc(N2CCC(Nc3ccc(F)c(OCC4CC4)c3)C2=O)ncc1-c1cn[nH]c1 (racemic) [Example 213, 3-((3-(cyclopropylmethoxy)-4-fluorophenyl)amino)-1-(4-ethyl-5-(1H-pyrazol-4-yl)pyridin-2-yl)pyrrolidin-2-one]",100 to 2200 nM
4,"O=C1C(Nc2cccc(OCC3CC3)c2)CCN1c1ccc(-c2cn[nH]c2)cc1 (single isomer, unassigned) [Example 233, 1-(4-(1H-pyrazol-4-yl)phenyl)-3-((3-(cyclopropylmethoxy)phenyl)amino) pyrrolidin-2-one]",10 to 100 nM
5,"COc1nc(N2CCC(N3CCc4ccccc4C3)C2=O)ccc1-c1cn[nH]c1 (racemic) [Example 277, 3-(3,4-dihydroisoquinolin-2(1H)-yl)-1-(6-methoxy-5-(1H-pyrazol-4-yl)pyridin-2-yl)pyrrolidin-2-one]",100 to 2200 nM
6,"COc1ccc2c(c1)CCN2C1CCN(c2ccc(-c3cn[nH]c3)cc2)C1=O (single isomer, unassigned) [Example 42, 1-(4-(1H-pyrazol-4-yl)phenyl)-3-(5-methoxyindolin-1-yl)pyrrolidin-2-one]",10 to 100 nM
7,"COc1cccc(OC2CCN(c3ccc(-c4cn[nH]c4)cc3)C2=O)c1 (stereo not drawn) [Example 108, 1-(4-(1H-Pyrazol-4-yl)phenyl)-3-(3-methoxyphenoxy)pyrrolidin-2-one, TFA]",10 to 100 nM
8,"COc1cc(NC2CCN(c3ccc(-c4cn[nH]c4)c(C(F)(F)F)c3)C2=O)ccc1F (single isomer, unassigned) [Example 371, 1-(4-(1H-pyrazol-4-yl)-3-(trifluoromethyl)phenyl)-3-((4-fluoro-3-methoxyphenyl)amino)pyrrolidin-2-one]",100 to 2200 nM
9,"COc1ccc(NC2CCN(c3ccc(-c4cn[nH]c4)c(OC)c3)C2=O)c(F)c1 (single isomer, unassigned) [Example 152, 3-((2-fluoro-4-methoxyphenyl)amino)-1-(3-methoxy-4-(1H-pyrazol-4-yl)phenyl) pyrrolidin-2-one]",100 to 2200 nM
10,"COCc1cc(N2CCC(Nc3ccc(F)c(OC)c3)C2=O)ccc1-c1cn[nH]c1 (single isomer, unassigned) [Example 181, 3-((4-fluoro-3-methoxyphenyl)amino)-1-(3-(methoxymethyl)-4-(1H-pyrazol-4-yl)phenyl)pyrrolidin-2-one]",100 to 2200 nM
11,"O=C1C(Nc2nc3ccccc3[nH]2)CCN1c1ccc(-c2cn[nH]c2)cc1 (single isomer, unassigned) [Example 55, 3-((1H-benzo[d]imidazol-2-yl)amino)-1-(4-(1H-pyrazol-4-yl)phenyl)pyrrolidin-2-one]",100 to 2200 nM
12,"CCc1nc(N2CCC(Nc3ccc(F)c(OC)c3)C2=O)ccc1-c1cn[nH]c1 (single isomer, unassigned) [Example 317, 1-(6-ethyl-5-(1H-pyrazol-4-yl)pyridin-2-yl)-3-((4-fluoro-3-methoxyphenyl)amino) pyrrolidin-2-one]",< 10 nM
13,"COc1ccc(F)c(NC2CCN(c3ccc(-c4cn[nH]c4)cc3)C2=O)c1 (single isomer, unassigned) [Example 239, 1-(4-(1H-pyrazol-4-yl)phenyl)-3-((2-fluoro-5-methoxyphenyl)amino)pyrrolidin-2-one]",10 to 100 nM
14,"COc1cc(F)cc(NC2CCN(c3ccc(-c4cn[nH]c4)nc3)C2=O)c1 (single isomer, unassigned) [Example 301, 1-(6-(1H-pyrazol-4-yl)pyridin-3-yl)-3-((3-fluoro-5-methoxyphenyl)amino)pyrrolidin-2-one]",10 to 100 nM
15,"COc1nc(N2CCC(N3CCC(F)(F)CC3)C2=O)ccc1-c1cn[nH]c1 (racemic) [Example 282, 3-(4,4-difluoropiperidin-1-yl)-1-(6-methoxy-5-(1H-pyrazol-4-yl)pyridin-2-yl)pyrrolidin-2-one hydrochloride]",10 to 100 nM
16,"Cc1nc(N2CCC(Nc3cccc(OC(F)F)c3)C2=O)ccc1-c1cn[nH]c1 (single isomer, unassigned) [Example 201, 3-((3-(difluoromethoxy)phenyl)amino)-1-(6-methyl-5-(1H-pyrazol-4-yl)pyridin-2-yl)pyrrolidin-2-one]",10 to 100 nM
17,"COc1nc(N2CCC(N3CCOC[C@H]3C)C2=O)ccc1-c1cn[nH]c1 (mixture of isomers) [Example 274, 1-(6-methoxy-5-(1H-pyrazol-4-yl)pyridin-2-yl)-3-((R)-3-methylmorpholino) pyrrolidin-2-one]",10 to 100 nM
18,"COc1cc(NC2CCN(c3ccc(-c4cn[nH]c4)c(OCCN(C)C)c3)C2=O)ccc1F (racemic) [Example 346, 1-(3-(2-(dimethylamino)ethoxy)-4-(1H-pyrazol-4-yl)phenyl)-3-((4-fluoro-3-methoxyphenyl)amino)pyrrolidin-2-one]",100 to 2200 nM

row,SMILES,IC50
1,"N#Cc1cccc(N[C@@H]2CCN(c3ccc(-c4cn[nH]c4)cc3)C2=O)c1 [Example 387, (R)-3-((1-(4-(1H-pyrazol-4-yl)phenyl)-2-oxopyrrolidin-3-yl)amino)benzonitrile]",10 to 100 nM
2,"CCc1cc(N2CCC(Nc3cccc(OCC4CC4)c3)C2=O)ccc1-c1cn[nH]c1 (single isomer, unassigned) [Example 248, 3-((3-(cyclopropylmethoxy)phenyl)amino)-1-(3-ethyl-4-(1H-pyrazol-4-yl)phenyl)pyrrolidin-2-one]",100 to 2200 nM
3,"COc1c(F)cccc1NC1CCN(c2ccc(-c3cn[nH]c3)cc2)C1=O (single isomer, unassigned) [Example 16, 1-(4-(1H-pyrazol-4-yl)phenyl)-3-((3-fluoro-2-methoxyphenyl)amino)pyrrolidin-2-one]",100 to 2200 nM
4,"O=C1C(Nc2cncnc2)CCN1c1ccc(-c2cn[nH]c2)cc1 (racemic) [Example 227, 1-(4-(1H-pyrazol-4-yl)phenyl)-3-(pyrimidin-5-ylamino)pyrrolidin-2-one]",10 to 100 nM
5,"COc1cc(NC2CCN(c3ccc(-c4cn[nH]c4)cc3)C2=O)ccc1F (single isomer, unassigned) [Example 17, 1-(4-(1H-pyrazol-4-yl)phenyl)-3-((4-fluoro-3-methoxyphenyl)amino)pyrrolidin-2-one]",10 to 100 nM
6,"COc1nc(N2CCC(Nc3cnn(C(C)C)c3)C2=O)ccc1-c1cn[nH]c1 (racemic) [Example 272, 3-((1-isopropyl-1H-pyrazol-4-yl)amino)-1-(6-methoxy-5-(1H-pyrazol-4-yl)pyridin-2-yl)pyrrolidin-2-one]",100 to 2200 nM
7,"COc1cc(NC2CCN(c3ccc(-c4cn[nH]c4)cc3)C2=O)ccc1F (stereo not drawn) [Example 4, 1-(4-(1H-pyrazol-4-yl)phenyl)-3-((4-fluoro-3-methoxyphenyl)amino)pyrrolidin-2-one]",< 10 nM
8,"COc1cccc(NC2CCN(c3ccc(-c4cn[nH]c4)c(OC)c3)C2=O)c1 (single isomer, unassigned) [Example 74, 1-(3-methoxy-4-(1H-pyrazol-4-yl)phenyl)-3-((3-methoxyphenyl)amino)pyrrolidin-2-one]",< 10 nM
9,"COc1cc(NC2CCN(c3ccc(-c4cn[nH]c4)c(OC)c3)C2=O)ccc1F (single isomer, unassigned) [Example 155, 3-((4-fluoro-3-methoxyphenyl)amino)-1-(3-methoxy-4-(1H-pyrazol-4-yl)phenyl) pyrrolidin-2-one]",< 10 nM
10,"N#Cc1ccnc(NC2CCN(c3ccc(-c4cn[nH]c4)cc3)C2=O)c1 (stereo not drawn) [Example 116, 2-((1-(4-(1H-Pyrazol-4-yl)phenyl)-2-oxopyrrolidin-3-yl)amino)isonicotinonitrile]",10 to 100 nM
11,"COc1cc(NC2CCN(c3ccc(-c4cn[nH]c4)c(C)c3)C2=O)cc(OC)c1 (single isomer, unassigned) [Example 366, 3-((3,5-dimethoxyphenyl)amino)-1-(3-methyl-4-(1H-pyrazol-4-yl)phenyl) pyrrolidin-2-one]",100 to 2200 nM
12,"COc1nc(N2CCC(N3CC(C)OC(C)C3)C2=O)ccc1-c1cn[nH]c1 (racemic) [Example 275, 3-(2,6-dimethylmorpholino)-1-(6-methoxy-5-(1H-pyrazol-4-yl)pyridin-2-yl)pyrrolidin-2-one]",100 to 2200 nM
13,"COc1nc(N2CCC(N3CCCC(C)(C)C3)C2=O)ccc1-c1cn[nH]c1 (racemic) [Example 278, 3-(3,3-dimethylpiperidin-1-yl)-1-(6-methoxy-5-(1H-pyrazol-4-yl)pyridin-2-yl)pyrrolidin-2-one]",100 to 2200 nM
14,"COc1cccc(N[C@H]2C(=O)N(c3ccc(-c4cn[nH]c4)cc3)C[C@@H]2CO)c1 [Example 133, (3R,4S)-1-(4-(1H-Pyrazol-4-yl)phenyl)-4-(hydroxymethyl)-3-((3-methoxyphenyl)amino) pyrrolidin-2-one]",< 10 nM
15,"CCOc1cc(N2CCC(Nc3ccc(F)c(OC)c3)C2=O)ccc1-c1cn[nH]c1 (single isomer, unassigned) [Example 38, 1-(3-ethoxy-4-(1H-pyrazol-4-yl)phenyl)-3-((4-fluoro-3-methoxyphenyl)amino)pyrrolidin-2-one]",10 to 100 nM
16,"COc1ccc(F)c(NC2CCN(c3ccc(-c4cn[nH]c4)c(C(F)(F)F)c3)C2=O)c1 (single isomer, unassigned) [Example 373, 1-(4-(1H-pyrazol-4-yl)-3-(trifluoromethyl)phenyl)-3-((2-fluoro-5-methoxyphenyl)amino)pyrrolidin-2-one]",100 to 2200 nM
17,"COc1ccc(F)c(NC2CCN(c3ccc(-c4cn[nH]c4)cn3)C2=O)c1 (single isomer, unassigned) [Example 303, 1-(5-(1H-pyrazol-4-yl)pyridin-2-yl)-3-((2-fluoro-5-methoxyphenyl)amino)pyrrolidin-2-one]",10 to 100 nM
18,"COc1cccc(NC2CCN(c3ccc(-c4cn[nH]c4)cc3)C2=O)c1 (single isomer, unassigned) [Example 28, 1-(4-(1H-pyrazol-4-yl)phenyl)-3-((3-methoxyphenyl)amino)pyrrolidin-2-one]",< 10 nM
